The values that follow come from ChEMBL document CHEMBL3745622 (Bioorg Med Chem, 2016).

pIC50, pKi: −log10 of the molar value.

Series [1] deals with T1, Tyrosinase (Agaricus bisporus, UniProt O42713).
T1 sequence (O42713 whole entry): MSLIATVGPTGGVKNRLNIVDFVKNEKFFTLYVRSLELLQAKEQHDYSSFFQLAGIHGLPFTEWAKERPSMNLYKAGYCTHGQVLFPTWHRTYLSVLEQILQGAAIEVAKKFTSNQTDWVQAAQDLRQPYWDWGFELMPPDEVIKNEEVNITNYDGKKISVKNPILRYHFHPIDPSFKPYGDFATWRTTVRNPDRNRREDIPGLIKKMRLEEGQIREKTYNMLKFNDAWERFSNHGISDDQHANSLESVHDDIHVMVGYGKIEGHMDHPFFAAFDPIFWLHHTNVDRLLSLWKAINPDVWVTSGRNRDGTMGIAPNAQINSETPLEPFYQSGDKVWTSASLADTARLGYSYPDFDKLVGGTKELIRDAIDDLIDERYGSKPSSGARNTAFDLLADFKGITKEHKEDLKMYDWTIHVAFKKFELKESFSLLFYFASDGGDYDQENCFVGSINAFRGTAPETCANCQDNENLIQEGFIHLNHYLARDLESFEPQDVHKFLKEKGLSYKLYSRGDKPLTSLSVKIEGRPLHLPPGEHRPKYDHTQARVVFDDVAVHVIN
Description: (§1) Inhibition of monophenolase activity of mushroom tyrosinase using L-tyrosine as substrate preincubated with substrate for 10 mins followed by protein addition measured after 15 mins by spectrophotometric analysis

The target in series [2] is T1, Tyrosinase. The source holds these as a separate data set.
Description: (§2) Inhibition of diphenolase activity of mushroom tyrosinase using L-DOPA as substrate preincubated with substrate for 10 mins followed by protein addition measured after 15 mins by spectrophotometric analysis
The target in series [3] is T1, Tyrosinase. The series is described as follows: Time dependent inhibition of monophenolase activity of mushroom tyrosinase using L-tyrosine as substrate measured every 30 secs by Morrison and Walsh plot analysis. The note with it: read-out: Ki(app).
Series [4] concerns the target T1, Tyrosinase. The source holds these as a separate data set.
For series [5], the target named is T1, Tyrosinase. This is another data set of the same source.
Description: Competitive inhibition of diphenolase activity of mushroom tyrosinase using L-DOPA as substrate preincubated for 5 to 60 mins by Lineweaver-Burk and Dixon plot analysis
Series [6] concerns B16. Nature of the series: cells. The note with it: Mus musculus, B16, 72 h.
Description: Inhibition of alpha-MSH-stimulated melanin production in mouse B16 cells after 72 hrs by microplate reader analysis
The nature of series [7]: in vitro. The following applies: mouse, B16 cells.
Description: Cytotoxicity against mouse B16 cells assessed as cell viability after 72 hrs by MTT assay
Series [8] has as its target T2, Tyrosinase (Agaricus bisporus) (UniProt O42713).
T2 sequence (whole entry): T1 sequence (O42713 whole entry)
Description: as §2

Series [9] deals with T2, Tyrosinase (Agaricus bisporus). This is another data set of the same source.
Description: as §1
The test system of series [10] is B16. Nature of the series: Potency index, ratio of kojic acid IC50 to compound IC50 for alpha-MSH-stimulated melanin production in mouse B16 cells. Type of series: functional.

The term pIC50 denotes the IC50 on a negative log10 scale, so that one unit is a factor of ten. One may read the pKi as −log10 of the Ki, conventionally taken in molar units. By CC50 is commonly meant the concentration that lowers cell viability or growth by half. A higher CC50 goes with lower toxicity to the cells.

In the case of `C/C(=C\Cc1ccc(-c2coc3cc(O)cc(O)c3c2=O)cc1O)CCCC(C)(C)O`, the pIC50 in [1] and in series [2] was below 3.70 throughout.

Consider `CC(C)=CCC/C(C)=C/Cc1cc(C2CC(=O)c3c(cc(O)c(C)c3O)O2)ccc1O` (stereo unspecified), for which the pIC50 in series [1] and in series [2] was below 3.70 throughout.

`CC(C)=CCCCC1(C)C=Cc2cc(-c3coc4cc(O)cc(O)c4c3=O)ccc2O1` (stereo unspecified): the pIC50 in series [1] and in series [2] was below 3.70 in each case.

With `CC(C)=CCC/C(C)=C/Cc1cc(C2Oc3cc(O)c(C)c(O)c3C(=O)C2=O)ccc1O` (stereo unspecified), the pIC50 in series [1] and in series [2] was below 3.70 in each case.

Take `CC(C)=CCC/C(C)=C/Cc1c(O)ccc(C2COc3cc(O)cc(O)c3C2=O)c1O` (stereo unspecified): the pKi in series [3] was 6.82; in [4] it was 5.74; in series [5] it was 4.12. Moreover, the results for the negative logarithm of the IC50 (pIC50) in series [1], in [2] and in series [6] were 5.54, 3.89 and 4.37, respectively. This compound showed a CC50 at 72 h in [7] of 241 µM. Further, the inhibition result in series [8] and in [9] was “Dose-dependent effect” in each case.

Turning to `CC(C)=CCc1c(O)ccc(C2COc3cc(O)c(CC=C(C)C)c(O)c3C2=O)c1O` (stereo unspecified), the pIC50 in series [1] and in [2] was below 3.70 each time.

Regarding `COc1c(C2COc3cc(O)c(CC=C(C)C)c(O)c3C2=O)ccc(O)c1CC=C(C)C` (stereo unspecified), the negative-log IC50 (pIC50) in [1] and in series [2] was below 3.70 in each case.

Consider `COc1c2c(cc3c1C[C@H](c1ccc(O)cc1O)CO3)OC(C)(C)C=C2`, for which the pKi in series [3] is 8.83; in series [4], 7.72; in [5], 6.89. The “Ratio IC50” value in series [10] is recorded as 200. The negative logarithm of the IC50 (pIC50) in series [1] is 7.52; in series [2], 6.30; in series [6], 4.89. This compound also displayed a CC50 at 72 h in series [7] of 104 µM. For the same compound, the inhibition entry in series [8] and in series [9] was “Dose-dependent effect” each time.

In the case of `COc1cc(C2COc3cc4c(c(OC)c3C2)C=CC(C)(C)O4)c(O)cc1O` (stereo unspecified), the pIC50 in series [1] and in [2] was below 3.70 in each case.

As to `CC(C)=CCC/C(C)=C/COc1ccc(-c2coc3cc(O)cc(O)c3c2=O)cc1O`, the negative logarithm of the IC50 (pIC50) in series [1] and in series [2] was below 3.70 in each case.

With `CC(C)=CCC/C(C)=C/Cc1cc(-c2coc3cc(O)cc(O)c3c2=O)ccc1O`, the pIC50 in series [1] and in series [2] was below 3.70 in each case.

For `CC(C)=CCC/C(C)=C/Cc1c(O)ccc(C2(O)COc3cc(O)cc(O)c3C2=O)c1O` (stereo unspecified), the values for the pIC50 in series [1] and in series [2] were 4.74 and 3.84, respectively. Besides, the results for the pKi in series [4] and in series [5] were 5.12 and 4.09, respectively. Moreover, the inhibition result in series [8] and in series [9] was “Dose-dependent effect” each time.

Regarding `COc1cc(O)ccc1C1COc2cc3c(c(O)c2C1=O)C=CC(C)(C)O3` (stereo unspecified), the figures for the pIC50 in series [1] and in series [2] were below 3.70 and 3.83, respectively. The pKi in series [5] was 4.25.

With `CC(C)=CCC/C(C)=C/Cc1c(O)ccc(-c2coc3cc(O)cc(O)c3c2=O)c1O`, the pIC50 in [1] was 4.04; in [2], below 3.70. This compound gave a pKi in [4] of 4.30. The inhibition result in series [8] and in [9] was “Dose-dependent effect” each time.
